Assay results as given in article PMC9081605, “A High-Throughput Toxicity Screen of 42 Per- and Polyfluoroalkyl Substances (PFAS) and Functional Assessment of Migration and Gene Expression in Human Placental Trophoblast Cells” (Frontiers in Toxicology, 2022).
Where two headings read alike, the source gives them in different places.

What was measured:
JEG-3 cells [1] = experiment: Scratch wound migration assay; format: cell-based, human; conditions: for Migration, percent of wound closure: 100 µM, after 72 h; for cellular migration relative to vehicle control: after 24 h of exposure, 25-200 µM; for significant effects on migration observed at 24 h, followed to 72 h: any concentration, by 72 h
Experimental: JEG-3 cells were cultured as described in Cell Culture section, and six PFAS were evaluated across an 8-point linear concentration curve ranging from 25 to 200 µM (25 µM steps): PFOA (335-67-1), GenX (62037-80-3), PFOS (1763-23-1), perfluorooctanesulfonamide (PFOSA, 754-91-6), perfluorooctanamide (PFOAA, 423-54-1), and perfluorononanoic acid (PFNA, 375-95-1). The vehicle control group consisted of 98% media + 2% methanol to match the concentration of methanol in the media at the highest PFAS concentration tested (200 µM). Cadmium chloride (25 µM) was used as a positive control for cytotoxicity ([Brooks and Fry, 2017]). Chemical exposure plate maps were designed so that all experimental conditions were tested in at least technical duplicates per plate. The outer edges of each plate received media alone and were excluded from all analyses to avoid edge effects. JEG-3 cells were counted and seeded at a density of 80,000 cells per well in black-walled, clear bottom 96-well plates (Corning #CLS3603, Millipore Sigma) and allowed to adhere and grow for 36 h. After approximately 36 h, 96-well plates were imaged on the IncuCyte Zoom to obtain cellular confluence measurements prior to chemical dosing (0 h). Media was then removed from wells and replaced with fresh serum-free media containing chemical treatments (serum-free exposure media) using the Viaflo liquid handling device. After 1 h of treatment with serum-free exposure media, plates were again imaged for cellular confluence using the IncuCyte Zoom. Serum-free exposure media was then removed from wells and wells were scratched by dragging a 200 µl pipette tip from top to bottom of each well, changing tips every well. Fresh media containing serum and chemical treatments (exposure media) was added to plates using a liquid handling device and allowed to grow for 72 h, with imaging via the IncuCyte Zoom every 6 h.
Plate well bottom images were evaluated using automated cell masking as described in Proliferation section. Cell migration was calculated as the change in cellular confluence from the baseline measurement obtained immediately post-scratch to each subsequent time point (24, 48, and 72 h, post-scratch).
Raw migration assay data exported from IncuCyte software were analyzed using GraphPad Prism 8.0 (GraphPad Software, San Diego, CA)). Prior to analysis, a minimum starting confluence value of 70% was set to ensure comparisons between samples were not skewed. Images with a starting confluence of less than 70% were excluded from analysis. Statistical analysis was performed using multiple unpaired t-tests to compare treated groups to the vehicle control followed by post hoc correction for multiple tests using the Bonferroni-Dunn method. Concentration-response analysis to determine migration assay EC50s was attempted but was not able to be modeled due to the non-linear nature of the concentration-response relationship for this endpoint.

JEG-3 cells [2] = experiment: Proliferation, change in confluence 0-24 h (IncuCyte Zoom, HTTS); format: cell-based, human; conditions: for cellular proliferation relative to vehicle control (rough binning): after 24 h, in at least one concentration; for Prolif ↓, lowest concentration at which the mean response value exceeded the mean control value ± 2*SD (rough binning): decrease
Method in brief: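 Confluence measured by automated image masking at 0 h and 24 h after dosing; proliferation = 24 h minus baseline confluence. JEG-3 seeded at 2,500 cells/well, ~30–50% baseline confluence, exposed 24 h to PFAS up to 500 µM in medium with 2.5% methanol vehicle; 37°C, 5% CO2.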

[3] = JEG-3 cells, 24 h exposure, four-parameter fit, estimates meeting inclusion criteria, read-out: Proliferation EC50 ± SD
[4] = Homo sapiens, JEG-3, 24 h, read-out: Proliferation EC50 ± SD, JEG-3 cells, 24 h exposure, four-parameter fit, estimates meeting inclusion criteria

Structure (SMILES)	Migration, percent of wound closure (JEG-3 cells [1]) [%]	cellular migration relative to vehicle control (JEG-3 cells [1])	Prolif ↑, lowest concentration at which the mean response value exceeded the mean control value ± 2*SD (rough binning) (JEG-3 cells [2]; JEG-3 cells, 24 h, increase) [µM]	cellular proliferation relative to vehicle control (rough binning) (JEG-3 cells [2])	significant effects on migration observed at 24 h, followed to 72 h (JEG-3 cells [1])	Prolif ↓, lowest concentration at which the mean response value exceeded the mean control value ± 2*SD (rough binning) (JEG-3 cells [2]; JEG-3 cells, 24 h) [µM]	EC50 (JEG-3 cells [2]; [3]) [µM]	EC50 (JEG-3 cells [2]; [4]) [µM]	EC50 (JEG-3 cells [2]; Homo sapiens, JEG-3, 24 h, read-out: proliferation EC50 ± SE, JEG-3 cells, 24 h) [µM]	EC50 (JEG-3 cells [2]; JEG-3 cells, 24 h exposure, four-parameter fit, estimates meeting inclusion criteria, listed as PFOS, read-out: Proliferation EC50 ± SD) [µM]	minimal effective concentration (JEG-3 cells [2]; Homo sapiens, JEG-3, 24 h, read-out: Prolif ↓, lowest concentration at which the mean response value exceeded the mean control value ± 2*SD (rough binning)) [µM]
N.O=C(O)C(F)(OC(F)(F)C(F)(F)C(F)(F)F)C(F)(F)F (stereo not drawn) [Ammonium perfluoro-2-methyl-3-oxahexanoate]	79	significantly reduced	50	increased cellular proliferation	–	–	–	–	–	–	–
O=C(O)C(F)(F)C(F)(F)C(F)(F)C(F)(F)C(F)(F)C(F)(F)C(F)(F)C(F)(F)F [Perfluorononanoic acid]	–	significantly reduced	–	reduced cellular proliferation	attenuated	300	326 ± 5.5	–	–	–	–
NS(=O)(=O)C(F)(F)C(F)(F)C(F)(F)C(F)(F)C(F)(F)C(F)(F)C(F)(F)C(F)(F)F [Perfluorooctanesulfonamide]	–	significantly reduced	–	–	–	–	–	160 ± 87.8	160 ± 90	–	–
O=S(=O)(O)C(F)(F)C(F)(F)C(F)(F)C(F)(F)C(F)(F)C(F)(F)C(F)(F)C(F)(F)F [Perfluorooctanesulfonic acid]	57	significantly reduced	–	reduced cellular proliferation	–	250	294 ± 5.8	–	–	294	–
O=C(O)C(F)(F)C(F)(F)C(F)(F)C(F)(F)C(F)(F)C(F)(F)C(F)(F)F [Perfluorooctanoic acid]	72	significantly reduced	–	reduced cellular proliferation	attenuated	–	–	344 ± 12.2	–	–	350
